Source: patent US9045484B2, “Inhibitors of the BMP signaling pathway” (The Brigham and Women's Hospital, Inc., priority 2008, dated 2015)

What was measured:
[1] = Microsomal stability in pooled mouse liver microsomes; type: in vitro ADME; conditions: 0.5 mg/mL microsome protein, 1 mM NADPH
Procedure: Test compound (3 μM final concentration) along with 0.5 mg/mL microsome protein and 1 mM NADPH was incubated for 0, 5, 15, 30 and 60 min. Incubation of test compound and microsomes in the absence of NADPH served as a negative control. The samples were quenched with methanol and centrifuged for 20 min at 2500 rpm to precipitate proteins. Sample supernatants were analyzed (N=3) by LC/MS. The ln peak area ratio (compound peak area/internal standard peak area) was plotted against time and the slope of the line determined to give the elimination rate constant [k=(−1)(slope)]. The half life (t1/2 in minutes) and the in vitro intrinsic clearance (CLint in μL/min/mg protein) values were calculated according to the following equations, where V=incubation volume in μL/mg protein: […]

hematopoietic stem cells = assay: Frequency of hematopoietic stem cells in bone marrow, multicolor flow cytometry; type: in vivo, C57BL/6 mice; conditions: 3 mg/kg/d IP for 30 days; versus vehicle-injected controls; FIG. 15
Procedure: Ten week-old male C57BL/6 mice were treated chronically with compound 13 (3 mg/kg/d IP) for 30 days, and bone marrow harvested and subjected to multicolor flow cytometry to quantify hematopoietic stem cell lineages based on cell surface marker expression.

[2] = C57BL/6, mouse, in vivo, ip, 3 mg/kg, 8 h
Procedure: Preliminary pharmacokinetic studies were performed by intraperitoneally administering to wild-type mice (C57BL/6) one dose (3 mg/kg) of compound 13 (FIG. 23). Pharmacokinetics via plasma levels of compound 13 were serially measured in individual mice at varying intervals after injection by LC-MS/MS (n=3 mice each point, mean±s.d.).

[3] = tested on: turpentine-challenged C57BL/6 mice; conditions: 3 mg/kg ip every 12 h, weekly turpentine for 3 weeks
Procedure: To model the anemia of inflammation, C57BL/6 mice were studied in which chronic inflammation was induced by weekly subcutaneous injections of turpentine.
Mice received a subcutaneous injection of 100 μL turpentine weekly for 3 weeks. Compound 13 or vehicle (3 mg/kg) was administered ip beginning with the first turpentine injection and every 12 h thereafter. Vehicle treated mice without turpentine injection were studied as controls. One week after the final turpentine dose, blood was drawn for Hb levels, mean corpuscular volume (MCV), and absolute neutrophil counts.

hepcidin [4] = assay: Hepatic hepcidin expression in the steady state after 30 days treatment; type: in vivo, C57BL/6 mice; conditions: 3 mg/kg/d IP for 30 days; FIG. 16
Procedure: Ten-week-old male C57BL/6 mice fed a normal iron replete diet were treated chronically with compound 13 (3 mg/kg/d IP) or vehicle for 30 days, and hepatic hepcidin mRNA levels were measured by quantitative RT-PCR.

[5] = tested on: IL6-induced hepcidin expression in HepG2 cells; assay: IL6-induced hepcidin expression in HepG2 hepatoma cells; type: cell-based, human; conditions: pretreatment 5-625 nM for 30 min, IL6 50 ng/mL 1.5 h; FIG. 7
Procedure: HepG2 cells pretreated with compound 13 (5-625 nM) or vehicle for 30 min. were incubated with IL6 (50 ng/mL) for 1.5 h. Cells were harvested, and hepcidin mRNA and 18S rRNA levels were measured by quantitative RT-PCR. Changes in gene expression were normalized to 18S ribosomal RNA levels using the relative cycle threshold method.

[6] = tested on: turpentine-challenged C57BL/6 mice; assay: Turpentine-induced hypoferrinemia, 24 h after one turpentine injection; type: in vivo
Procedure: Mice received a subcutaneous injection of turpentine, and 24 h later, serum was obtained for measurement of iron concentrations. Compound 13 (3 mg/kg) or vehicle was administered ip concurrently with turpentine and 12 hours later.

hepcidin [7] = assay: Pseudomonas aeruginosa-induced hepcidin expression in zebrafish embryos; type: in vivo; conditions: 6 μM; 5 h after PsA injection; RT-qPCR; FIG. 6
Description: The following describes the development an in vivo model of inflammation-induced hepcidin expression that is amenable to facile genetic and pharmacological manipulation. The zebrafish is an attractive organism because it enables rapid knockdown of gene function via morpholino oligonucleotides and because it is highly amenable to pharmacological manipulation. Live Pseudomonas aeruginosa (PsA) were microinjected into the yolk of three-day-old zebrafish to induce a rapid and robust inflammatory response. It was determined that injection of bacteria induces robust expression of inflammatory markers. Embryos were injected with 5000 live PsA bacteria or phosphate PBS at 48 hpf and harvested 5 h later. TNFα, serum amyloid A (SAA), IL-1β, and IL-11α mRNA levels were measured by RT-qPCR (FIG. 5; *P<0.001 vs PBS, #P<0.002 vs. PBS). […] Next, it was examined whether the inflammatory response evoked by PsA in zebrafish is accompanied by induction of hepcidin.

LDL-R-deficient mice = assay: Vascular calcification in high-fat diet fed LDL-R-deficient mice, Osteosense probe imaging of aortas; type: in vivo; conditions: 16 weeks high fat diet; compound 13 mg/kg IP twice daily; FIG. 24
Procedure: Adult (10 week old) LDL-R-deficient mice on a C57BL/6 background were subjected to a high-lipid atherogenic diet, concurrently with vehicle treatment or drug treatment (compound 13 mg/kg IP twice daily) started simultaneously with atherogenic diet. After 16 weeks of high fat diet and drug treatment, aortas, carotids, and left ventricular outflow tract were harvested and prepared as appropriate for histochemical staining or immunohistological staining, by en face mounting and fixation, or for paraffin embedded tissue sections for histology. To analyze early osteogenesis (as a precursor to calcification), mice were injected intravenously with Osteosense probe (VisEn) 24 hours prior to harvest, and harvested aortas were rinsed with phosphate buffered saline. Visualization of Osteosense probe was accomplished by near-IR fluorescence ([…]) using a LICOR laser scanner. This technique readily detected signal in aortas obtained from high-fat diet LDL-R-deficient mice treated with vehicle control (e, f, and g), while relatively little background signal was obtained in wild-type mice given a normal diet (a, b). Non-fluorescent imaging of wild-type aortas is also depicted (c, d).

[8] = tested on: constitutively-active mutant form of ALK2
C57BL/6 wild-type mice = assay: 30-day treatment of wild-type mice, circulating blood cell lineages; type: in vivo, C57BL/6 mice
[9] = 3 mg/kg/d IP for 30 days, average (n = 4)

## c1ccc2c(-c3cnn4cc(-c5ccc(N6CCNCC6)cc5)cnc34)ccnc2c1 [Compound 13, 4-[6-(4-piperazin-1-ylphenyl)pyrazolo[1,5-a]pyrimidin-3-yl]quinoline]
[1]; read-out: half-life (t1/2) in mouse liver microsomes
  half-life at 3 μM: 1.37 h
[1]; read-out: intrinsic clearance (CLint) in mouse liver microsomes
  microsomal CLint at 3 μM: 16.9 ± 5.6 µL/min/mg
Hematopoietic stem cells
  frequency of hematopoietic stem cells in the marrow: No significant difference
[2]
  plasma levels relative to in vitro IC50 for BMP4-mediated activation of Smad1/5/8: 5 fold
[3]; FIG. 10
  hemoglobin (Hb) levels: prevented the decline in Hb levels and MCV
[3]; FIG. 11
  mean corpuscular volume (MCV): prevented the decline in Hb levels and MCV
[3]; FIG. 12
  absolute neutrophil counts: did not affect the increase in absolute neutrophil counts
Hepcidin [4]
  basal hepatic hepcidin mRNA levels relative to vehicle-treated mice: 40%
[5]
  IL6-mediated increase in hepcidin mRNA levels: abrogated the IL6-mediated increase in hepcidin mRNA levels in a dose-dependent fashion
[6]; 3 mg/kg ip with turpentine and 12 hours later, FIG. 8
  turpentine-induced reduction in serum iron levels: prevented turpentine-induced reduction in serum iron levels
[6]; two doses 3 mg/kg IP every 12 hours, FIG. 9
  hepatic hepcidin mRNA levels after turpentine: prevented elevation of hepatic hepcidin mRNA levels
Hepcidin [7]
  PsA-induced induction of hepcidin mRNA: almost completely blocked
LDL-R-deficient mice
  Osteosense near-IR fluorescence of aortas: less intense than that of vehicle-treated controls
[8]; FOP mutant mice, 3 mg/kg ip twice daily, FIG. 14
  ectopic calcification and disability: prevented the ectopic calcification and disability
[8]; wild type mice, 3 mg/kg BID
  skeletal development: exhibited normal skeletal development
C57BL/6 wild-type mice; 3 mg/kg/d IP for 30 days
  myelosuppression, thrombocytopenia, anemia or erythrocytosis: did not appear to cause myelosuppression, thrombocytopenia, anemia or conversely erythrocytosis
C57BL/6 wild-type mice; [9]
  % Lymphocyte: 63.1%
  % Monocyte: 3.8%
  % Neutrophil: 30.8%
  % Reticulocyte: 2.6%
  Hb: 11.9 g/dL
  Hct: 43.8%
  MCHC: 27.3 g/dL
  MCV: 48.5 fL
  Platelet count: 8.305e+11 L⁻¹
  RBC: 9e+12 L⁻¹
  RDW: 18.6%
  Total WBC: 1.9e+09 L⁻¹
C57BL/6 wild-type mice; 30 days treatment, compared to vehicle-treated controls, data not shown
  serum iron in the steady state: did not cause an elevation of serum iron
